Assay results from the supplement of paper PMC10307832.

Assays:
Assay in all cases: relative viability (nuclei count vs DMSO), 5 days (fraction); higher = more cells survive
[1] = compound: CC1=CC=C(C=C1)C(=O)CN2C3=C(CCCC3)SC2=N [Pifithrin_alpha] + N=C(N)NC(=N)NCCc1ccccc1 [Phenformin] (partner 250 µM)
Procedure, shortened: (§1)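 Relative viability was taken as the ratio of nuclei in treated wells to nuclei in vehicle wells. Lung cancer cell lines in 1536-well plates received compounds by pin tool one day after seeding, either one drug alone or a fixed anchor-drug dose plus five library-drug doses (not always all listed) in √10 steps. Nuclei were counted on 4× images after 5 days of treatment, and values are medians of duplicate plates.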

Axitinib + Luminespib = compound: CNC(=O)c1ccccc1Sc1ccc2c(/C=C/c3ccccn3)n[nH]c2c1 [Axitinib] + CCNC(=O)c1noc(-c2cc(C(C)C)c(O)cc2O)c1-c1ccc(CN2CCOCC2)cc1 [Luminespib] (partner 0.01 µM)
Procedure, shortened: as §1

Axitinib + Crizotinib = compound: CNC(=O)c1ccccc1Sc1ccc2c(/C=C/c3ccccn3)n[nH]c2c1 [Axitinib] + C[C@@H](Oc1cc(-c2cnn(C3CCNCC3)c2)cnc1N)c1c(Cl)ccc(F)c1Cl [Crizotinib] (partner 1 µM)
Procedure, shortened: as §1

Bemcentinib + Lapatinib = compound: Nc1nc(Nc2ccc3c(c2)CC[C@@H](N2CCCC2)CC3)nn1-c1cc2c(nn1)-c1ccccc1CCC2 [Bemcentinib] + CS(=O)(=O)CCNCc1ccc(-c2ccc3ncnc(Nc4ccc(OCc5cccc(F)c5)c(Cl)c4)c3c2)o1 [Lapatinib] (partner 2 µM)
Procedure, shortened: as §1

Cell Line | relative viability ([1]; first compound 1 µM) | relative viability ([1]; first compound 3.162 µM) | relative viability ([1]; first compound 10 µM) | relative viability ([1]; first compound 31.62 µM) | relative viability ([1]; first compound 100 µM) | relative viability (Axitinib + Luminespib; first compound 0.005 µM) | relative viability (Axitinib + Luminespib; first compound 0.01581 µM) | relative viability (Axitinib + Luminespib; first compound 0.05 µM) | relative viability (Axitinib + Luminespib; first compound 0.1581 µM) | relative viability (Axitinib + Luminespib; first compound 0.5 µM) | relative viability (Axitinib + Crizotinib; first compound 0.005 µM) | relative viability (Axitinib + Crizotinib; first compound 0.01581 µM) | relative viability (Axitinib + Crizotinib; first compound 0.05 µM) | relative viability (Axitinib + Crizotinib; first compound 0.1581 µM) | relative viability (Axitinib + Crizotinib; first compound 0.5 µM) | relative viability (Bemcentinib + Lapatinib; first compound 0.04 µM) | relative viability (Bemcentinib + Lapatinib; first compound 0.1265 µM) | relative viability (Bemcentinib + Lapatinib; first compound 0.4 µM) | relative viability (Bemcentinib + Lapatinib; first compound 1.265 µM) | relative viability (Bemcentinib + Lapatinib; first compound 4 µM)
LOU-NH91 | 0.514 | 0.647 | 0.689 | 0.665 | 0.627 | 0.325 | 0.377 | 0.379 | 0.349 | 0.331 | 0.765 | 0.641 | 0.773 | 0.697 | 0.78 | 0.714 | 0.79 | 0.789 | 0.742 | 0.756
LU99A | 0.817 | 0.809 | 0.904 | 0.406 | 0.763 | 0.239 | 0.265 | 0.241 | 0.302 | 0.303 | 0.552 | 0.541 | 0.628 | 0.525 | 0.648 | 0.961 | 1.26 | 1.15 | 0.961 | 0.893
LXF-289 | 0.509 | 0.562 | 0.526 | 0.471 | 0.556 | 0.69 | 0.721 | 0.659 | 0.573 | 0.781 | 0.872 | 0.799 | 0.781 | 0.781 | 0.841 | 0.887 | 0.908 | 0.988 | 0.972 | 0.924
NCI-H441 | 0.893 | 0.988 | 1.15 |  | 0.994 | 0.305 | 0.325 | 0.313 | 0.456 | 0.576 | 0.69 | 0.797 | 0.654 | 0.794 | 0.853 |  |  |  |  | 
NCI-H522 | 0.736 | 0.63 | 0.65 | 0.673 | 0.693 | 1.28 | 1.18 | 1.02 | 0.998 | 1.02 |  |  |  |  |  |  |  |  |  | 
NCI-H1299 |  |  |  |  |  |  |  |  |  |  | 0.997 | 0.947 | 0.986 | 1 | 1.04 | 0.991 | 0.995 | 0.962 | 0.938 | 0.978
NCI-H1395 | 0.428 | 0.433 | 0.411 | 0.416 | 0.41 | 0.8 | 0.76 | 0.838 | 0.609 | 0.586 |  |  |  |  |  | 0.95 | 1.19 | 0.999 | 1.06 | 0.897
NCI-H1623 | 0.556 | 0.619 | 0.556 | 0.465 | 0.561 | 0.519 | 0.602 | 0.444 | 0.538 | 0.481 |  |  |  |  |  |  |  |  |  | 
NCI-H1703 |  |  |  |  |  |  |  |  |  |  | 0.777 | 0.27 | 0.158 | 0.136 | 0.237 |  | 1.18 | 1.24 | 1.17 | 1.13
NCI-H1793 |  | 0.339 | 0.306 | 0.33 | 0.329 | 0.148 | 0.23 | 0.16 | 0.187 | 0.169 |  |  |  |  |  | 0.488 | 0.621 | 0.693 | 0.582 | 0.75
NCI-H2342 | 0.484 | 0.622 | 0.543 | 0.585 | 0.553 | 0.896 | 0.763 | 0.59 | 0.756 | 0.726 |  |  |  |  |  |  |  |  |  | 
SW 900 | 0.519 | 0.605 | 0.715 | 0.569 | 0.393 | 0.167 | 0.162 | 0.159 | 0.185 | 0.18 |  |  |  |  |  |  |  |  |  | 
